Source: US20240261414A1, “FATTY ACID AMIDE HYDROLASE (FAAH) CLEAVABLE PRODRUGS OF BRAIN TARGETING ACTIVES AND COMBINATION WITH PERIPHERALLY RESTRICTED FAAH INHIBITORS” (Autobahn Therapeutics, Inc., priority 2021, published 2024)

The compounds below were run against T1, recombinant human FAAH (rhFAAH) (Homo sapiens, UniProt O00519) (assay: FAAH substrate evaluation (acid metabolite formation)). Conditions: 0.5 ng/L rhFAAH, 1 μM test compound, Tris-EDTA buffer pH 8.0, room temperature, 0-60 minutes.
T1 construct: purchased Cayman Chemical (Ann Arbor, MI, USA)
T1 sequence (O00519 1-579): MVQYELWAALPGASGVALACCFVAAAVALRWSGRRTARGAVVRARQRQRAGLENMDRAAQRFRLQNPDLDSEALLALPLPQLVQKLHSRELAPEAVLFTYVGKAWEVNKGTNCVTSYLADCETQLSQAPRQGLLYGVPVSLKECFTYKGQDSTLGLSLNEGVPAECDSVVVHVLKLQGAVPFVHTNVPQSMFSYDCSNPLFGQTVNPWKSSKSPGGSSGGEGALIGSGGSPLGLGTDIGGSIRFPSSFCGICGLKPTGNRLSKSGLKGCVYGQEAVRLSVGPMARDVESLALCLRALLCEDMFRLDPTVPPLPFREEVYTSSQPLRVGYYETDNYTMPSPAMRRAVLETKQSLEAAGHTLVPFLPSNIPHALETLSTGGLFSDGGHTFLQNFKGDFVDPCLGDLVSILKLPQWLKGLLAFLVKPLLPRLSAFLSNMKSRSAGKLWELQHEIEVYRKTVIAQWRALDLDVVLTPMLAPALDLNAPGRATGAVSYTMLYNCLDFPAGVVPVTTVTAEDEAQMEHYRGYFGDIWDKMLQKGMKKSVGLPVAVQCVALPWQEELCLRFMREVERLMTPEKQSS
Type: biochemical
Protocol: Purified recombinant human FAAH (rhFAAH) was purchased from Cayman Chemical (Ann Arbor, MI, USA). The total volume for each incubation was 400 μL containing a final 0.5 ng/L rhFAAH, 1 μM test compound, 1.25% ethanol or 1 μM PF-3845 (FAAH inhibitor), and 0.1% bovine serum albumin in Tris-EDTA buffer at pH 8.0). The positive control was LL-341001. The incubation was conducted at the room temperature. At 0, 5, 15, 30 and 60 minutes, an aliquot of 30 μL reaction mixtures was removed and mixed with 300 μL acetonitrile containing 5 ng/mL terfenadine and 10 ng/mL tolbutamide as internal standards to quench the reaction. The resulting mixture was centrifuged at 4000 rpm, 4° C. for 15 minutes, and 100 μL supernatant was ready for LC-MS/MS analysis to measure the formation of acid metabolite.
Acquity Ultra Performance LC system from Waters was used for sample analysis. The chromatography was performed on a reverse phase Kinetex 2.6 μm C18 column, 2.1×30 mm, 100 Å. The mobile phase A comprised of 0.1% formic acid in water and mobile phase B comprised of 0.1% formic acid in acetonitrile with a 2-min run time at the flow rate of 0.8 mL/min for the acid metabolite from positive control or a 1.5 min run time at the flow rate of 0.9 mL/min for the acid metabolite of test compounds. The mass spectrometer (API-5500 and API Q Trap 4000 Applied Biosystems/MDS SCIEX Instruments, Framingham, MA, USA) was operated under ESI positive or negative ion MRM mode.
The formation of acid metabolite was monitored and quantified using one calibration point of 1 μM. The observed rate constant (ke) for the acid metabolite formation was calculated by plotting the metabolite concentration versus time of incubation with the slope being ke and is shown in Table 2.

Row | SMILES | ke (observed rate constant for the acid metabolite formation)
1 | O=C(C[C@H]1CCc2c1[nH]c1ccc(OCc3ccc(C4CCCC4)c(C(F)(F)F)c3)cc21)Nc1cccnn1 [Compound 43] | B (ke is less than 1.0 and more than or equal to 0.1)
2 | Cc1noc(-c2ccc(CSCCC(=O)Nc3cccnn3)cc2)c1NC(=O)O[C@H](C)c1ccccc1Cl [Compound 41] | B (ke is less than 1.0 and more than or equal to 0.1)
3 | Cc1c(C=CC(=O)N[C@@H]2C[C@H]2F)ccc(OCc2cc(Cl)cc3c2OC(C)(C)C3)c1C [Compound 4, 3-(4-((5-chloro-2,2-dimethyl-2,3-dihydrobenzofuran-7-yl)methoxy)-2,3-dimethylphenyl)-N-((1R,2R)-2-fluorocyclopropyl)propenamide] | B (ke is less than 1.0 and more than or equal to 0.1)
4 | CCc1cc(/C(C)=N/OCc2ccc(C3CCCCC3)c(C(F)(F)F)c2)ccc1CN1CC(C(=O)NC)C1 [Compound 18] | B (ke is less than 1.0 and more than or equal to 0.1)
5 | COc1ccc(NC(=O)c2ccc3nc(-c4cc(Cl)cc(Cl)c4)oc3c2)nn1 [Compound 37] | B (ke is less than 1.0 and more than or equal to 0.1)
6 | CNC(=O)CCSCc1ccc(-c2onc(C)c2NC(=O)O[C@H](C)c2ccccc2Cl)cc1 [Compound 23] | B (ke is less than 1.0 and more than or equal to 0.1)
7 | Cc1c(C=CC(=O)Nc2cccnn2)ccc(OCc2cc(Cl)cc3c2OC(C)(C)C3)c1C [Compound 2, 3-(4-((5-chloro-2,2-dimethyl-2,3-dihydrobenzofuran-7-yl)methoxy)-2,3-dimethylphenyl)-N-(pyridazin-3-yl)propenamide] | B (ke is less than 1.0 and more than or equal to 0.1)
8 | Cc1c(C=CC(N)=O)ccc(OCc2cc(Cl)cc3c2OC(C)(C)C3)c1C [Compound 9, 3-(4-((5-chloro-2,2-dimethyl-2,3-dihydrobenzofuran-7-yl)methoxy)-2,3-dimethylphenyl)propenamide] | A (ke is more than or equal to 1.0)
9 | CCCCC[C@H](O)CC[C@@H]1[C@H]2Cc3cccc(OCC(N)=O)c3C[C@H]2C[C@H]1O [Compound 14] | B (ke is less than 1.0 and more than or equal to 0.1)
10 | CCc1cc(/C(C)=N/OCc2ccc(C3CCCCC3)c(C(F)(F)F)c2)ccc1CN1CC(C(=O)NCCCF)C1 [Compound 39] | B (ke is less than 1.0 and more than or equal to 0.1)
11 | Cc1noc(-c2ccc(CSCCC(N)=O)cc2)c1NC(=O)O[C@H](C)c1ccccc1Cl [Compound 24] | B (ke is less than 1.0 and more than or equal to 0.1)
12 | COc1ccc(NC(=O)c2ccc(F)c(OCCCc3c(C)n[nH]c3C)c2)cn1 [Compound 29] | B (ke is less than 1.0 and more than or equal to 0.1)
13 | Cc1noc(-c2ccc(CSCCC(=O)Nc3ccncc3)cc2)c1NC(=O)OC(C)c1ccccc1Cl (stereo not shown) [Compound 44] | B (ke is less than 1.0 and more than or equal to 0.1)
14 | Cc1c(C=CC(=O)N[C@@H]2C[C@@H]2F)ccc(OCc2cc(Cl)cc3c2OC(C)(C)C3)c1C [Compound 5, 3-(4-((5-chloro-2,2-dimethyl-2,3-dihydrobenzofuran-7-yl)methoxy)-2,3-dimethylphenyl)-N-((1R,2S)-2-fluorocyclopropyl)propenamide] | B (ke is less than 1.0 and more than or equal to 0.1)
15 | Cc1noc(-c2ccc(NC(=O)CCC(=O)NCCCF)cc2F)c1NC(=O)O[C@H](C)c1ccccc1Cl [Compound 30] | B (ke is less than 1.0 and more than or equal to 0.1)
16 | Cc1c(CCC(=O)Nc2ccncc2)ccc(OCc2cc(Cl)cc3c2OC(C)(C)C3)c1C [Compound 35] | B (ke is less than 1.0 and more than or equal to 0.1)

The next lines start with the values.

Row | ke (observed rate constant for the acid metabolite formation) | SMILES
17 | D (ke is 0) | Cc1noc(NC(=O)CCSCc2ccc(-c3onc(C)c3NC(=O)OC(C)c3ccccc3Cl)cc2)c1C (stereo not shown) [Compound 34]
18 | A (ke is more than or equal to 1.0) | CNC(=O)CCc1ccc(OCc2cc(Cl)cc3c2OC(C)(C)C3)c(C)c1C [Compound 10, 3-(4-((5-chloro-2,2-dimethyl-2,3-dihydrobenzofuran-7-yl)methoxy)-2,3-dimethylphenyl)-N-methylpropanamide]
19 | D (ke is 0) | O=C(Nc1ccncc1)c1ccc2nc(-c3cc(Cl)cc(Cl)c3)oc2c1 [Compound 57]
20 | D (ke is 0) | CCc1cc(/C(C)=N/OCc2ccc(C3CCCCC3)c(C(F)(F)F)c2)ccc1CN1CC(C(N)=O)C1 [Compound 19]
21 | C (ke is less than 0.1 and more than 0) | Cc1noc(-c2ccc(CSCCC(=O)N[C@H]3C[C@H]3F)cc2)c1NC(=O)OC(C)c1ccccc1Cl (stereo partly shown) [Compound 45]
22 | D (ke is 0) | Cc1noc(-c2ccc(CSCCC(=O)NC3CC3)cc2)c1NC(=O)OC(C)c1ccccc1Cl (stereo not shown) [Compound 33]
23 | C (ke is less than 0.1 and more than 0) | CCCCC[C@H](O)CC[C@@H]1[C@H]2Cc3cccc(OCC(=O)NC4CC4)c3C[C@H]2C[C@H]1O [Compound 12]
24 | A (ke is more than or equal to 1.0) | O=C(Nc1cccnc1)c1ccc2nc(-c3cc(Cl)cc(Cl)c3)oc2c1 [Compound 52]
25 | C (ke is less than 0.1 and more than 0) | Cc1noc(-c2ccc(CSCCC(=O)N[C@@H]3C[C@H]3F)cc2)c1NC(=O)OC(C)c1ccccc1Cl (stereo partly shown) [Compound 40]
26 | D (ke is 0) | CNC(=O)C[C@H]1CCc2c1[nH]c1ccc(OCc3ccc(C4CCCC4)c(C(F)(F)F)c3)cc21 [Compound 21]
27 | D (ke is 0) | CCc1cc(/C(C)=N/OCc2ccc(C3CCCCC3)c(C(F)(F)F)c2)ccc1CN1CC(C(=O)NC2CC2F)C1 (stereo not shown) [Compound 28]
28 | C (ke is less than 0.1 and more than 0) | CCCCC[C@H](O)CC[C@@H]1[C@H]2Cc3cccc(OCC(=O)N[C@H]4C[C@H]4F)c3C[C@H]2C[C@H]1O [Compound 49]
29 | A (ke is more than or equal to 1.0) | Cc1c(C=CC(=O)NCCO)ccc(OCc2cc(Cl)cc3c2OC(C)(C)C3)c1C [Compound 11, 3-(4-((5-chloro-2,2-dimethyl-2,3-dihydrobenzofuran-7-yl)methoxy)-2,3-dimethylphenyl)-N-(2-hydroxyethyl)propenamide]
30 | A (ke is more than or equal to 1.0) | COc1ccc(NC(=O)c2ccc3nc(-c4cc(Cl)cc(Cl)c4)oc3c2)cn1 [Compound 51]
31 | A (ke is more than or equal to 1.0) | O=C(Nc1ccnnc1)c1ccc2nc(-c3cc(Cl)cc(Cl)c3)oc2c1 [Compound 50]
32 | A (ke is more than or equal to 1.0) | CCCCC[C@H](O)CC[C@@H]1[C@H]2Cc3cccc(OCC(=O)Nc4cccnn4)c3C[C@H]2C[C@H]1O [Compound 53]
33 | D (ke is 0) | Cc1noc(-c2ccc(NC(=O)CCC(=O)NC3CC3)cc2F)c1NC(=O)O[C@H](C)c1ccccc1Cl [Compound 31]
34 | C (ke is less than 0.1 and more than 0) | O=C(C[C@H]1CCc2c1[nH]c1ccc(OCc3ccc(C4CCCC4)c(C(F)(F)F)c3)cc21)NC1CC1F (stereo partly shown) [Compound 32]
35 | A (ke is more than or equal to 1.0) | CCc1cc(/C(C)=N/OCc2ccc(C3CCCCC3)c(C(F)(F)F)c2)ccc1CN1CC(C(=O)NCCO)C1 [Compound 17]
36 | D (ke is 0) | Cc1n[nH]c(C)c1CCCOc1cc(C(N)=O)ccc1F [Compound 36]
37 | D (ke is 0) | O=C(NC1CC1)c1ccc2nc(-c3cc(Cl)cc(Cl)c3)oc2c1 [Compound 15]
